Laboratory results published in patent US11865132B2, “Nucleoside derivatives and methods of use thereof” (Ascletis BioScience Co., Ltd., priority 2021, dated 2024).

Assay: Permeability of compounds in Caco-2 assay (bi-directional transport)
Format: in vitro ADME
Conditions: human, pH 7.4; for Papp A→B at 2 h, 2 μM / Papp B→A at 2 h, 2 μM: Caco-2 monolayer, pH 7.40; for Papp A→B at 2 h, 2 μM: A to B; for Papp B→A at 2 h, 2 μM: B to A
Description: Caco-2 cells purchased from ATCC were seeded onto […] (PET) in 96-well Corning Insert plates at 1×10^5 cells/cm2, and refreshed medium every 4˜5 days until to the 21st to 28th day for confluent cell monolayer formation. The transport buffer in the study was HBSS with 10.0 mM HEPES at pH 7.40±0.05. Test compound was tested at 2.00 μM bi-directionally in duplicate. Digoxin was tested at 10.0 μM bi-directionally in duplicate, while nadolol and metoprolol were tested at 2.00 μM in A to B direction in duplicate. Final DMSO concentration was adjusted to less than 1%. The plate was incubated for 2 hours in CO2 incubator at 37±1° C., with 5% CO2 at saturated humidity without shaking. […] For nadolol and metoprolol, 200 μL supernatant solution was diluted with 600 μL ultra-pure water for LC-MS/MS analysis. For digoxin and test compounds, 200 μL supernatant solution was diluted with 200 μL ultra-pure water for LC-MS/MS analysis Concentrations of test and control compounds in starting solution, donor solution, and receiver solution were quantified by LC-MS/MS methodologies, using peak area ratio of analyte/internal standard. After transport assay, lucifer yellow rejection assay was applied to determine the Caco-2 cell monolayer integrity. The apparent permeability coefficient Papp (cm/s) was calculated using the equation: Papp=(dCr/dt)×Vr/(A×C0) Where dCr/dt is the cumulative concentration of compound in the receiver chamber as a function of time (μM/s); Vr is the solution volume in the receiver chamber (0.075 mL on the apical side, 0.25 mL on the basolateral side); A is the surface area for the transport, i.e. 0.0804 cm2 for the area of the monolayer, CO is the initial concentration in the donor chamber (μM).

Papp at 2 h, 2 μM (Caco-2, binning criteria Low/Moderate/High, read-out: Papp (permeability bin)) [nm/s]	Papp A→B at 2 h, 2 μM [nm/s]	Papp B→A at 2 h, 2 μM [nm/s]	efflux ratio at 2 h, 2 μM (Papp(BA)/Papp(AB), Caco-2)	SMILES
20 to 200	5.65	20.4	3.61	CC(C)C(=O)OC[C@H]1O[C@@H](n2ccc(NO)nc2=O)[C@@H]2OC(=O)O[C@@H]21 [Compound 1, ((3aR,4R,6R,6aR)-6-((Z)-4-(hydroxyimino)-2-oxo-3,4-dihydropyrimidin-1(2H)-yl)-2-oxotetrahydrofuro[3,4-d][1,3]dioxol-4-yl)methyl isobutyrate]
	< 2.93	5.27		CC(C)C(=O)OC[C@H]1O[C@@H](n2ccc(NO)nc2=O)[C@H](O)[C@@H]1O [molnupiravir, reference compound]
